This passage reports Ki, ED50 and IC50 results from patent US7169772B2, “4,4-difluoro-1,2,3,4-tetrahydro-5H-1-benzazepine derivatives or salts thereof” (Astellas Pharma Inc., priority 2001, dated 2007).

Data set [1] addresses T1, human V2 receptor (Homo sapiens, UniProt P30518).
T1 construct: expressed in transfected cells; host or cells: CHO cells
In words: V2 receptor binding assay. Conditions: human V2 expression CHO cell membrane, [3H]-Vasopressin 0.5 nM, 25° C., 60 minutes; read-out: Ki (affinity for V2 receptor). On the procedure: (1) V2 Receptor Binding Assay
A human V2 expression CHO cell membrane sample was prepared in accordance with a method of Tahara, et al. (British Journal of Pharmacology. Vol 125, p. 1463–1470, 1998). 2 μg of the membrane sample were incubated in a total of 250 μl of 50 mM tris-chloric acid buffer solution (pH=7.4) containing 10 mM MgCl2 and 0.1% bovine serum albumin (BSA), together with [^3H]-Arginine-Vasopressin (hereinafter referred to as ‘[^3H]-Vasopressin’) (0.5 nM, Specific activity=75 Ci mmol) and a test compound (10^−10˜10^−5 M) at 25° C. for 60 minutes. Then, free [^3H]-Vasopressin and receptor binding [^3H]-Vasopressin were separated using a cell harvester, and the receptor binding [^3H]-Vasopressin was adsorbed on a Unifilter Plate GF/B glass filter, sufficiently dried, and then mixed with a microplate scintillation cocktail. The amount of receptor binding [^3H]-Vasopressin was measured using a top count, and inhibition rate was calculated by the following equation. Inhibition Rate(%)=100−(C1−B1)/(C0−B1)×100 • C1: the amount of [^3H]-Vasopressin bound to the membrane sample, when the receptor membrane sample is treated in the coexistence of a test compound of known concentration and [^3H]-Vasopressin • C0: the amount of [^3H]-Vasopressin bound to the membrane sample, when the receptor membrane sample is treated with [^3H]-Vasopressin, in the absence of a test compound • B1: the amount of [^3H]-Vasopressin bound to the membrane sample, when the receptor membrane sample is treated in the coexistence of an excess amount of Vasopressin (10^−6 M) and [^3H]-Vasopressin
Dissociation Coefficient (Ki)=IC50/(1+[L]/Kd) • [L]: the concentration of [^3H]-Vasopressin • Kd: dissociation coefficient of [3H]-Vasopressin for the receptor, calculated from saturation binding assay

Data set [2] has as its system Wistar male rats. In words: Antidiuresis assay (oral administration). The class given is in vivo. Conditions: Rattus norvegicus, read-out: ED50 (amount required for decreasing urinary excretion rate by 50%), 30 ml/kg water load after 15 minutes, urine until 4 hours after water load. On the procedure:
(3) Antidiuresis Assay (Oral Administration)
For the assay, Wistar male rats (10˜12 weeks of age) were employed. The test compound was orally administrated, and after 15 minutes, 30 ml/kg of distilled water were orally administrated (water load). Until 4 hours after the water load, urine was collected in a metabolism cage, and the amount of urine when the water load was set to 100% was calculated as the urinary excretion rate. […]

In data set [3] the target is CYP3A4 (Homo sapiens, UniProt P08684). Put plainly: Cytochrome P450 (3A4) enzyme inhibition assay. The class given is biochemical. Conditions: substrate 7-benzyloxy-4-(trifluoromethyl)coumarin, 37° C., 30 minutes. On the procedure:
(4) Cytochrome P450 (3A4) Enzyme Inhibition Assay
(§1) The assay was carried out in accordance with a method of Crespi, et al. (Analytical Biochemistry, 248, 188–190, 1997).
A 96 well plate was employed, and 7-benzyloxy-4-(trifluoromethyl)coumarin (5×10^−5 M) as a substrate, a test compound (4.9×10^−8˜5×10^−5 M), and an enzyme (5×10^−9 M) were incubated in a total of 200 μl of a 200 mM phosphate buffer solution (pH=7.4) comprising 8.2 μM NADP+, 0.41 mM glucose-6-phosphate, 0.41 mM MgCl2, and 0.4 Units/ml glucose-6-phosphate dehydrogenase, at 37° C. for 30 minutes. Then, 0.5 M aqueous solution of 2-amino-2-hydroxymethyl-1,3-propanediol containing 80% acetonitrile was added thereto to stop the reaction, and fluorescence intensity was measured with a fluorescent plate reader (excited wavelength: 409 nm, fluorescent wavelength: 530 nm). […] Inhibition Rate (%)=100−(C1−B1)/(C0−B1)×100 • C1: fluorescence intensity in the presence of a known concentration of test compound, enzyme, and a substrate
(§2) C0: fluorescence intensity in the presence of an enzyme and a substrate, in the absence of a test compound • B1: fluorescence intensity of a blank well (5) Cytochrome P450 (2C9) Enzyme Inhibition Effects

Data set [4] addresses CYP2C9 (Homo sapiens, UniProt P11712). In words: Cytochrome P450 (2C9) enzyme inhibition effects. The class given is biochemical. Conditions: substrate 7-methoxy-4-(trifluoromethyl)coumarin, 37° C., 45 minutes. On the procedure: as §2, §1
A 96 well plate was employed, and 7-methoxy-4-(trifluoromethyl)coumarin (7.5×10^−5 M) as a substrate, a test compound (4.9×10^−8˜5×10^−5M), and an enzyme (10^−8 M) were incubated in a total of 200 μl of a 200 mM phosphate buffer solution (pH=7.4) comprising 8.2 μM NADP+, 0.41 mM glucose-6-phosphate, 0.41 mM MgCl2, and 0.4 Units/ml glucose-6-phosphate dehydrogenase, at 37° C. for 45 minutes. Then, 0.5 M aqueous solution of 2-amino-2-hydroxymethyl-1,3-propanediol containing 80% acetonitrile was added thereto to stop the reaction, and fluorescence intensity was measured with a fluorescent plate reader (excited wavelength: 409 nm, fluorescent wavelength: 530 nm). […]

Chain of CYP3A4 (P08684 whole entry): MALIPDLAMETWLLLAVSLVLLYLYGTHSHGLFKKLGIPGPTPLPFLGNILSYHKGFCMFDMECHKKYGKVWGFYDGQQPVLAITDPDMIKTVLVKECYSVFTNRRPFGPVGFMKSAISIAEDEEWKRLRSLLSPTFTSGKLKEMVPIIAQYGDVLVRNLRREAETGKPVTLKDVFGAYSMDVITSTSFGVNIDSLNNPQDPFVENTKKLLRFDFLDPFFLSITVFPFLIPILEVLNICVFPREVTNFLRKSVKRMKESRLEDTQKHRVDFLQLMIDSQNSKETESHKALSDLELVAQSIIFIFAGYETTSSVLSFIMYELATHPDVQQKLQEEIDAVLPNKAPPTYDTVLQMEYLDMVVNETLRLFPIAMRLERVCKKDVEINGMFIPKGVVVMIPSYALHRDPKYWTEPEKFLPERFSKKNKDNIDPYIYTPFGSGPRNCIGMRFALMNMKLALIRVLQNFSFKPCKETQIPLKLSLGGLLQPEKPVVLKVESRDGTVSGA
T1 sequence (P30518 whole entry): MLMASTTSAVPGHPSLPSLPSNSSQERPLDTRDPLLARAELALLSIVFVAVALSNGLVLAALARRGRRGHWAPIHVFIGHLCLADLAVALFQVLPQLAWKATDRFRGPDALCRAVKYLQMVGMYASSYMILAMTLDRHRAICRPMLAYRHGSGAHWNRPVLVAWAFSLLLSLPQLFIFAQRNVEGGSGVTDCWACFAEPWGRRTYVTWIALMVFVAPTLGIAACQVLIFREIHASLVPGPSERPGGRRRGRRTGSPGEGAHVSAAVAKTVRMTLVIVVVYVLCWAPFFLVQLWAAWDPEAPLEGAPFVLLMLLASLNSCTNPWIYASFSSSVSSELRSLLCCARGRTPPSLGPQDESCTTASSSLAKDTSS
Chain of CYP2C9 (P11712 whole entry): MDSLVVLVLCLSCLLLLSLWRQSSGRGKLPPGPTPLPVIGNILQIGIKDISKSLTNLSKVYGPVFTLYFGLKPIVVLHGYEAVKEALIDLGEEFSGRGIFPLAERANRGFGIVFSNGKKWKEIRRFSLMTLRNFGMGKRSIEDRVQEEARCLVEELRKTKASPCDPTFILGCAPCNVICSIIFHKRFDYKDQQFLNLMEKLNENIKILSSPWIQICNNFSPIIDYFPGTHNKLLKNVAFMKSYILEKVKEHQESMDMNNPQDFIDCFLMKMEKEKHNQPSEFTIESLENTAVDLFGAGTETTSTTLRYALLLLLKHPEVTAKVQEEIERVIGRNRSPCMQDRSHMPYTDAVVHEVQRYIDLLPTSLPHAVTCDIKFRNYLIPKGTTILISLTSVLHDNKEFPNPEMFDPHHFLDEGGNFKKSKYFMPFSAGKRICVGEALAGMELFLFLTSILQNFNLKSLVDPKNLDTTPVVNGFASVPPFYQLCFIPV

Usually Ki stands for a measure of affinity in units of concentration, obtained from inhibition or displacement. Consider `Cc1ccn(-c2ccc(C(=O)N3CCC(F)(F)/C(=C\C(=O)Nc4ccc(C(N)=O)cc4)c4ccccc43)c(Cl)c2)n1` [Example 72, 4-[((2Z)-2-{1-[2-chloro-4-(3-methyl-1H-pyrazol-1-yl)benzoyl]-4,4-difluoro-1,2,3,4-tetrahydro-5H-1-benzazepin-5-ylidene}acetyl)amino]benzamide], for which the Ki in data set [1] worked out at 3.7 nM.
Take `Cc1ccn(-c2ccc(C(=O)N3CCC(F)(F)/C(=C\C(=O)Nc4cccc(CO)c4)c4ccccc43)c(Cl)c2)n1` [Example 76, (2Z)-2-{1-[2-chloro-4-(3-methyl-1H-pyrazol-1-yl)benzoyl]-4,4-difluoro-1,2,3,4-tetrahydro-5H-1-benzazepin-5-ylidene}-N-[3-(hydroxymethyl)phenyl]acetamide]: the Ki in data set [1] came to 2.2 nM. Moreover, in data set [2], the ED50 is 0.22 mg/kg.
As a reminder, the IC50 is the concentration needed to halve the response being measured. `CC(C)NC(=O)C[C@H]1CCCN(C(=O)c2ccc(N3CCCC3)cc2Cl)c2ccccc21` [Control, 2-[(5R)-1-(2-chloro-4-pyrrolidin-1-ylbenzoyl)-2,3,4,5-tetrahydro-1H-1-benzazepin-5-yl]-N-isopropyacetamide, reference compound]: the IC50 in data set [3] and in data set [4] was less than 91 nM in each case. Also, the Ki in data set [1] stood at 68 nM.
With `Cc1ccn(-c2ccc(C(=O)N3CCC(F)(F)/C(=C\C(N)=O)c4ccccc43)c(Cl)c2)n1` [Example 8, (2Z)-2-{1-[2-chloro-4-(3-methyl-1H-pyrazol-1-yl)benzoyl]-4,4-difluoro-1,2,3,4-tetrahydro-5H-benzazepine}acetamide], the IC50 in data set [3] was greater than 20000 nM; in data set [4], 13000 nM.
For `NC(=O)CNC(=O)/C=C1/c2ccccc2N(C(=O)c2ccc(N3CCCC3)cc2Cl)CCC1(F)F` [Example 220, (2Z)-N-(2-amino-2-oxoethyl)-2-[1-(2-chloro-4-pyrrolidin-1-ylbenzoyl)-4,4-difluoro-1,2,3,4-tetrahydro-5H-1-benzazepin-5-ylidene]acetamide], in that order: 10000 nM and 11000 nM.
In the case of `Cc1cccc(CNC(=O)/C=C2/c3ccccc3N(C(=O)c3ccc(-n4ccc(C)n4)cc3Cl)CCC2(F)F)n1` [Example 119, (2Z)-2-{1-[2-chloro-4-(3-methyl 1H-pyrazol-1-yl)benzoyl]-4,4-difluoro-1,2,3,4-tetrahydro-5H-1-benzazepin-5-ylidene}-N-[(6-methylpyridin-2-yl)methyl]acetamide], the Ki in data set [1] is 5.6 nM.
On to `Cc1cccc(NC(=O)/C=C2/c3ccccc3N(C(=O)c3ccc(-n4ccc(C)n4)cc3Cl)CCC2(F)F)c1` [Example 74, (2Z)-2-{1-[2-chloro-4-(3-methyl-1H-pyrazol-1-yl)benzoyl]-4,4-difluoro-1,2,3,4-tetrahydro-5H-1-benzazepin-5-ylidene}-N-(3-methylphenyl)acetamide], for which the Ki in data set [1] stood at 5.6 nM.
Consider `Cc1ccn(-c2ccc(C(=O)N3CCC(F)(F)/C(=C\C(=O)N4CCCC(C(N)=O)C4)c4ccccc43)c(Cl)c2)n1` (stereo not shown) [Example 58, 1-((2Z)-2-{1-[2-chloro-4-(3-methyl-1H-pyrazol-1-yl)benzoyl]-4,4-difluoro-1,2,3,4-tetrahydro-5H-1-benzazepin-5-ylidene}acetyl)piperidine-3-carboxamide], for which the Ki in data set [1] was determined as 4.8 nM.
